# According to publication PMC8132114 (ACS combinatorial science, 2019):
# *1 amine or outer side, *2 acyl side, *3 side chain or, on linkers, in order; H or OH if unused. Where a SMILES comes first, the peptide text is derived from it. [ ]: non-standard residue; d: D form. The star is where a group is joined. X1 = O=C([C@H](CCON=Cc1c(Cl)cncc1Cl)N[*:1])[*:2]; Biotin = O=C1N[C@H]2[C@H](CS[C@H]2CCCCC(=O)*)N1; pY = N[C@@H](Cc1ccc(OP(=O)(O)O)cc1)C(=O)O; Ahx = NCCCCCC(=O)O
# B1: human DUSP14 C111S substrate-trapping mutant, O95147 1-198 (enzyme)
# chain: MSSRGHSTLPRTLMAPRMISEGDIGGIAQITSSLFLGRGSVASNRHLLQARGITCIVNATIEIPNFNWPQFEYVKVPLADMPHAPIGLYFDTVADKIHSVSRKHGATLVHSAAGVSRSATLCIAYLMKFHNVCLLEAYNWVKARRPVIRPNVGFWRQLIDYERQLFGKSTVKMVQTPYGIVPDVYEKESRHLMPYWGI
# Key:
# VH1 [1] = format: biochemical
# VH1 [2] = format: biochemical; remark: listed apart in the source
# [3] = target: oxime-containing phosphopeptide 6f-w99; assay: SPR
# [4] = target: oxime-containing phosphopeptide 6f-w202; assay: SPR
molecule,measurement,setting,value
Ac-OtGGOt-NH2 [Peptide 15],"inhibition, VH1 compared with DUSP14",VH1 [1],greater for VH1 than for DUSP14
CC(C)[C@H](NC(=O)CCCCCNC(=O)CCCC[C@@H]1SC[C@@H]2NC(=O)N[C@@H]21)C(=O)N[C@@H](CC(=O)O)C(=O)N[C@@H](C)C(=O)N[C@@H](CC(=O)O)C(=O)N[C@@H](CCC(=O)O)C(=O)N[C@@H](Cc1ccc(OP(=O)(O)O)cc1)C(=O)N[C@@H](CCON=Cc1c(Cl)cncc1Cl)C(N)=O [Peptide 6f-w202] ({Biotin-Ahx}-VDADE[pY][X1]-NH2),percent dephosphorylation,VH1 [2],43%
B1,Kd,[3],94 nM
same,Kd,[4],640 nM
